These results are taken from the NIST ThermoML archive (doi:10.1016/j.fluid.2011.11.013).

A word on the vapor or sublimation pressure: it is the pressure of vapour in equilibrium with the condensed phase.

± gives the expanded uncertainty stated by the source.

For the data set the following is noted: Liquid, Closed cell (Static) method.

Take `FC(F)C(F)F` [1,1,2,2-tetrafluoroethane]: the “vapor or sublimation pressure” value runs as follows: (258.15 K) 124.3 ± 1.1 kPa; (263.15 K) 153 ± 1.1 kPa; (273.15 K) 225.9 ± 1.2 kPa; (283.15 K) 323.4 ± 1.5 kPa.

In the case of `FC(F)(F)I` [trifluoroiodomethane], the “vapor or sublimation pressure” value came out at 133 ± 1.1 kPa (258.15 K), 160.4 ± 1.1 kPa (263.15 K), 228.4 ± 1.2 kPa (273.15 K) and 316.4 ± 1.4 kPa (283.15 K).
